One may read the MIC as the least concentration at which growth counts as inhibited.

For one data set, the system named is Pseudomonas aeruginosa. Kind of data set: Antibacterial activity against Pseudomonas aeruginosa ATCC 27853 assessed as growth inhibition by broth dilution method. It is filed as functional. (In general: Dilution methods test growth across graded concentrations, often in twofold steps.)
The subject of a further data set is Listeria monocytogenes. Kind of data set: Antibacterial activity against Listeria monocytogenes ATCC […] assessed as growth inhibition by broth dilution method. It is filed as functional.
The subject of another data set is Campylobacter jejuni. The data set can be described thus: Antibacterial activity against Campylobacter jejuni NCTC 11168 assessed as growth inhibition by broth dilution method. The format is functional.
The test system of a further data set is Enterococcus faecalis. Kind of data set: Antibacterial activity against Enterococcus faecalis ATCC 29212 assessed as growth inhibition by broth dilution method. It is filed as functional.
For data set [1], the system named is Escherichia coli. Kind of data set: Antibacterial activity against Escherichia coli ATCC 25922 assessed as growth inhibition by broth dilution method. It is filed as functional.
In the next data set the test system is Acinetobacter baumannii. Kind of data set: Antibacterial activity against Acinetobacter baumannii ATCC 19606 assessed as growth inhibition by broth dilution method. The format is functional.
A short description of data set [2]: Antibacterial activity against multi-drug resistant Clostridium difficile 630 assessed as growth inhibition by broth dilution method. The format is functional, Clostridioides difficile 630. As to conditions: Clostridioides difficile.
The subject of the next data set is Enterobacter cloacae. Kind of data set: Antibacterial activity against multi-drug resistant Enterobacter cloacae 849 clinical isolate assessed as growth inhibition by broth dilution method. The format is functional.
For data set [3], the system named is Klebsiella pneumoniae. Kind of data set: Antibacterial activity against multi-drug resistant Klebsiella pneumoniae KpCG clinical isolate assessed as growth inhibition by broth dilution method. The format is functional.
The subject of a further data set is Staphylococcus aureus. The data set can be described thus: Antibacterial activity against Staphylococcus aureus ATCC 29213 assessed as growth inhibition by broth dilution method. The format is functional.
The subject of data set [4] is Escherichia coli. The data set can be described thus: Antibacterial activity against Escherichia coli O157:H7 assessed as growth inhibition by broth dilution method. It is filed as functional.
Data set [5] concerns Klebsiella pneumoniae. The data set can be described thus: Antibacterial activity against Klebsiella pneumoniae ATCC 13883 assessed as growth inhibition by broth dilution method. It is filed as functional.
For the next data set, the system named is Enterococcus faecium. Kind of data set: Antibacterial activity against Enterococcus faecium ATCC 19434 assessed as growth inhibition by broth dilution method. It is filed as functional.
The test system of another data set is Salmonella enterica. Kind of data set: Antibacterial activity against Salmonella enterica ATCC 13311 assessed as growth inhibition by broth dilution method. It is filed as functional.
Data set [6] is described as follows: Cytotoxicity against HEK293 cells assessed as growth inhibition after 48 hrs by MTT assay. The format is cell-based. As to conditions: human, read-out: MIC. (In general: Tetrazolium dyes change colour on reduction, which living cells bring about.)
Data set [7] in a line: Hemolytic activity in rabbit erythrocytes at 83 ug/mL after 30 mins relative to control. The format is ADME, cell-based, Oryctolagus cuniculus, Erythrocyte. The note with it: read-out: Activity.

Converted amounts (≈) assume the structure as drawn.

As for `CCCCCCCC(=O)N[C@@H](C(=O)N[C@H](CCN)C(=O)NCC(=O)N[C@H](CO)C(=O)N[C@H](Cc1c[nH]c2ccccc12)C(=O)N[C@@H](CO)C(=O)N[C@@H](CCN)C(=O)N[C@H](CCN)C(=O)N[C@@H](Cc1ccccc1)C(=O)N[C@@H](CCC(=O)O)C(=O)N[C@H](C(=O)N[C@@H](C(=O)N[C@@H](C)C(=O)O)[C@@H](C)CC)C(C)C)C(C)C`, the MIC with Pseudomonas aeruginosa is 25 µg/mL (≈ 16.4 µM); in the data set on Listeria monocytogenes, 25 µg/mL (≈ 16.4 µM); with Campylobacter jejuni it was 0.78 µg/mL (≈ 0.513 µM); in the data set on Enterococcus faecalis, 100 µg/mL (≈ 65.8 µM); in the data set on Escherichia coli [1], 3.13 µg/mL (≈ 2.06 µM); with Acinetobacter baumannii it was 12.5 µg/mL (≈ 8.22 µM). For the same compound, the MIC was found to be 12.7 µg/mL (≈ 8.35 µM) in data set [2]; 0.43 µg/mL (≈ 0.283 µM) with Enterobacter cloacae; 2.33 µg/mL (≈ 1.53 µM) with Klebsiella pneumoniae [3]; 100 µg/mL (≈ 65.8 µM) in the data set on Staphylococcus aureus; 0.43 µg/mL (≈ 0.283 µM) with Escherichia coli [4]; 3.13 µg/mL (≈ 2.06 µM) in the data set on Klebsiella pneumoniae [5]. In addition, the figures for the MIC with Enterococcus faecium and in the data set with Salmonella enterica were 50 µg/mL (≈ 32.9 µM) and 6.25 µg/mL (≈ 4.11 µM), respectively. Moreover, in data set [6], the MCC at 48 h amounted to 100 µg/mL. Besides, the hemolysis at 0.5 h, 83 ug/mL in data set [7] came to 4.7%.

Values taken from ChEMBL document CHEMBL3112395, “Synthesis and structure-activity relationship studies of N-terminal analogues of the antimicrobial peptide tridecaptin A(1)” (J Med Chem, 2014).
